Reference: US10118947B2, “Modulation of structured polypeptide specificity” (BICYCLE THERAPEUTICS LIMITED, priority 2013, dated 2018)
Where two headings read alike, the source gives them in different places. Numbered stars: 1 amine (or outer) side, 2 acyl side, 3 side chain; on linkers, the order of the positions; unused ones are H or OH. Bridge positions count the residues as written; N and C are the ends. Square brackets hold non-standard residues; d marks the D form. Peptide text beside a SMILES is read from it. Ala(2-furyl) = N[C@@H](Cc1ccco1)C(=O)O; TBMB = c1c(C[*:1])cc(C[*:3])cc1C[*:2]; X1 = O=C([C@H](Cn1cncn1)N[*:1])[*:2]; 2Thi = N[C@@H](Cc1cccs1)C(=O)O; Agb = N=C(N)NCC[C@H](N)C(=O)O; Agp = N=C(N)NC[C@H](N)C(=O)O; Tle = CC(C)(C)[C@H](N)C(=O)O; Aib = CC(C)(N)C(=O)O

Assays:
[1] = Plasma stability profiling Method #1 (MALDI-TOF, 35% plasma), rat plasma; format: in vitro ADME; conditions: method #1
Procedure: A rapid plasma stability profiling assay was developed that employed mass spectrometric detection (MALDI-TOF, Voyager DE, Applied Biosystems) of the parent mass, until the time when the parent peptide mass was no longer observable. Specifically, 200 uM of peptide was incubated in the presence of 35% rat or human plasma (Sera labs, using citrate as anticoagulant) at 37 deg C., which was supplemented with 1×PBS (derived from a 10×PBS Stock, Sigma). At various time points (i.e. t=0, 3, 24 hrs, henceafter daily up to 10 days), 2 uL of sample was added to 18 uL of 30 mM ammonium bicarbonate in a 1:1 mixture of acetonitrile:H2O. Samples were frozen at −80 deg C. until the time of analysis. For mass spectrometric analysis that determines the approximate detection window of the peptide, the acetonitrile:H2O-diluted sample of a given time point was spotted directly (0.7 uL) onto the MALDI plate. Matrix (alpha-cyanocinnamic acid, Sigma, prepared as a saturated solution in 1:1 acetonitrile:water containing 0.1% trifluoroacetic acid) was layered over the sample (1 uL). At a similar laser intensity setting on the MALDI TOF, the time could then be determined until parent peptide was no longer detectable. It should be noted that this is a qualitative assay serves to detect relative changes in plasma stability.

human plasma Kallikrein = target: T1, human plasma Kallikrein (Homo sapiens, UniProt P03952); test: Functional enzyme inhibition assay with fluorogenic substrate Z-PheArg-AMC, human plasma Kallikrein; format: biochemical; conditions: for F (Kivar/KiWT): ratio of Ki to wild type
T1 construct: purchased Stratech, UK
T1 sequence (P03952 20-638): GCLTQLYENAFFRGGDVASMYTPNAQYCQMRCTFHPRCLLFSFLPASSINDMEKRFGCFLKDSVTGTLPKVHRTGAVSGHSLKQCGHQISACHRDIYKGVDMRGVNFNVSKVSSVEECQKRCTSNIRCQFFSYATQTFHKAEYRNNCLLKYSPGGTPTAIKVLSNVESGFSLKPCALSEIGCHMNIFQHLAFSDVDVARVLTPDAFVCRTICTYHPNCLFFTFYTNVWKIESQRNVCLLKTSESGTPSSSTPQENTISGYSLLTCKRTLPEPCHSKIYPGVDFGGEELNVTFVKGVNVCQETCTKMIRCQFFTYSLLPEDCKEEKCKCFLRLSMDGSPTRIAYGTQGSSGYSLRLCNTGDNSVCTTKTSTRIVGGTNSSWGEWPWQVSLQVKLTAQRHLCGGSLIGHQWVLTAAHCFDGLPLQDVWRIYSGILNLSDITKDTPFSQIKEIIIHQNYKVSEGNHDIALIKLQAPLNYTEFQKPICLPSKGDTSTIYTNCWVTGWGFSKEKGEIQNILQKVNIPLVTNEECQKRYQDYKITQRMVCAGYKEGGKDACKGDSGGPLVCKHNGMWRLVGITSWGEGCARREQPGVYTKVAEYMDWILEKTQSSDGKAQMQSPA
Procedure: Functional enzyme assays were conducted in 10 mM Tris HCl, 150 mM NaCl, 10 mM MgCl2, 1 mM CaCl2) and 1 mg/mL BSA (all Sigma UK) pH7.4 at 25° C. in solid black 96 well plates. Briefly 26.5 pM human plasma Kallikrein (purchased from Stratech, UK) or 500 pM rat plasma Kallikrein (expressed and purified in house) were incubated in the absence or presence of increasing concentrations of test peptide for 15 minutes before addition of the fluorogenic substrate Z-PheArg-AMC (Enzo Lifesciences UK) to a final assay concentration of 100 μM in 4% DMSO. Release of AMC was measured using a Pherastar FS (BMG Labtech), excitation 360 nm, emission 460 nm. The rate of the linear phase of the reaction, typically 5 to 45 minutes, was calculated in MARS data analysis software (BMG labtech). The rate was then used to calculate the IC50 and Ki in Prism (GraphPad). A four parameter inhibition non-linear regression equation was used to calculate the IC50.
Peptides were dissolved as the TFA-salts in their powder form, and stock solutions were usually prepared in water. All solutions were centrifuged and filtered ([…] syringe filters) prior absorption measurement at 280 nm. […] For peptides containing non-natural amino acids with suspected chromophoric properties (i.e. NorHar, 4PhenylPro, 3Pal, 4Pal, Tic, 4GuanPhe, 4,4-BPAI, 3,3-DPA, 1NAI, 2NAI, 4BenzylPro, Ind) concentrations were determined by weighing the powder and dissolving the peptide in a defined quantity of water.

[2] = Table 24b, residue 7 modifications, read-out: Ki
[3] = Table 3c, D-Alanine scan in Loop2, read-out: Ki

| SMILES | F (Kivar/KiWT) (human plasma Kallikrein; Table 24b) | Ki (human plasma Kallikrein; [2]) | other results |
| --- | --- | --- | --- |
| CC(=O)N[C@H]1CSCc2cc3cc(c2)CSC[C@H](NC(=O)[C@H](CCCNC(=N)N)NC(=O)[C@H](CO)NC(=O)[C@@H]2CCCN2C(=O)[C@H](Cc2c[nH]c4ccccc24)NC(=O)[C@H](CO)NC1=O)C(=O)N[C@@H](CC(C)C)C(=O)N[C@@H](Cc1c[nH]cn1)C(=O)N[C@@H](CCC(N)=O)C(=O)N[C@@H](CC(=O)O)C(=O)N[C@@H](CC(C)C)C(=O)N[C@H](C(N)=O)CSC3 [Ac-(06-34-18) WPSR] (Ac-CSWPSRCLHQDLC-NH2; linker 1-7-13 via TBMB) | – | – | Observable in rat plasma, for days ([1]; Table 21): 2 days |
| CC(=O)N[C@H]1CSCc2cc3cc(c2)CSC[C@H](NC(=O)[C@H](CCCNC(=N)N)NC(=O)C(C)(C)NC(=O)[C@@H]2CCCN2C(=O)[C@H](Cc2c[nH]c4ccccc24)NC(=O)[C@H](CO)NC1=O)C(=O)N[C@@H](CC(C)C)C(=O)N[C@@H](Cc1c[nH]cn1)C(=O)N[C@@H](CCC(N)=O)C(=O)N[C@@H](CC(=O)O)C(=O)N[C@@H](CC(C)C)C(=O)N[C@H](C(N)=O)CSC3 [Ac-(06-34-18) Aib4] (Ac-CSWP[Aib]RCLHQDLC-NH2; linker 1-7-13 via TBMB) | – | – | Observable in rat plasma, for days ([1]; Table 14): 7 days |
| CC(=O)N[C@H]1CSCc2cc3cc(c2)CSC[C@H](NC(=O)[C@H](CCCNC(=N)N)NC(=O)[C@H](Cc2ccc(O)cc2)NC(=O)[C@@H]2CCCN2C(=O)[C@H](Cc2ccccc2)NC(=O)[C@H](CO)NC1=O)C(=O)N[C@@H](CC(C)C)C(=O)N[C@@H](Cc1ccco1)C(=O)N[C@@H](CCC(N)=O)C(=O)N[C@@H](CC(=O)O)C(=O)N[C@@H](CC(C)C)C(=O)N[C@H](C(N)=O)CSC3 [Ac-(06-34-18) Phe2 Tyr4 4FuAla7] (Ac-CSFPYRCL[Ala(2-furyl)]QDLC-NH2; linker 1-7-13 via TBMB) | 39 | – | – |
| CC(=O)N[C@H]1CSCc2cc3cc(c2)CSC[C@H](NC(=O)[C@@H](CCCNC(=N)N)NC(=O)[C@H](C)NC(=O)[C@@H]2CCCN2C(=O)[C@H](Cc2c[nH]c4ccccc24)NC(=O)[C@H](CO)NC1=O)C(=O)N[C@@H](CC(C)C)C(=O)N[C@@H](Cc1c[nH]cn1)C(=O)N[C@@H](CCC(N)=O)C(=O)N[C@@H](CC(=O)O)C(=O)N[C@@H](CC(C)C)C(=O)N[C@H](C(N)=O)CSC3 [Ac-(06-34-18) D-Arg5] | – | – | reduction in potency/affinity compared to wildtype (human plasma Kallikrein): 300 fold |
| CC(=O)N[C@H]1CSCc2cc3cc(c2)CSC[C@H](NC(=O)[C@H](CCCNC(=N)N)NC(=O)[C@H](C)NC(=O)[C@@H]2CCCN2C(=O)[C@H](Cc2c[nH]c4ccccc24)NC(=O)[C@H](CO)NC1=O)C(=O)N[C@@H](CC(C)C)C(=O)N[C@@H](Cc1c[nH]cn1)C(=O)N[C@H](C)C(=O)N[C@@H](CC(=O)O)C(=O)N[C@@H](CC(C)C)C(=O)N[C@H](C(N)=O)CSC3 [Ac-(06-34-18) D-Ala8] (Ac-CSWPARCLH[dA]DLC-NH2; linker 1-7-13 via TBMB) | – | – | Ki (human plasma Kallikrein; [3]): 11.7 nM; F (Kivar/KiWT) (human plasma Kallikrein; Table 3c): 28 |
| CC(=O)N[C@H]1CSCc2cc3cc(c2)CSC[C@H](NC(=O)[C@H](CCCNC(=N)N)NC(=O)[C@H](C)NC(=O)[C@@H]2CCCN2C(=O)[C@H](Cc2c[nH]c4ccccc24)NC(=O)[C@H](CO)NC1=O)C(=O)N[C@@H](C(C)(C)C)C(=O)N[C@@H](Cc1c[nH]cn1)C(=O)N[C@@H](CCC(N)=O)C(=O)N[C@@H](CC(=O)O)C(=O)N[C@@H](CC(C)C)C(=O)N[C@H](C(N)=O)CSC3 [Ac-(06-34-18) tBuGly6] (Ac-CSWPARC[Tle]HQDLC-NH2; linker 1-7-13 via TBMB) | – | – | Ki (human plasma Kallikrein; Table 24a, residue 6 modification in the context of Ac-(06-34-18), read-out: Ki (nM) Ac-(06-34-18)): 0.49 nM |
| CC(=O)N[C@H]1CSCc2cc3cc(c2)CSC[C@H](NC(=O)[C@H](CCCNC(=N)N)NC(=O)[C@H](Cc2ccc(O)cc2)NC(=O)[C@@H]2CCCN2C(=O)[C@H](Cc2ccccc2)NC(=O)[C@H](CO)NC1=O)C(=O)N[C@@H](CC(C)C)C(=O)N[C@@H](CNC(=N)N)C(=O)N[C@@H](CCC(N)=O)C(=O)N[C@@H](CC(=O)O)C(=O)N[C@@H](CC(C)C)C(=O)N[C@H](C(N)=O)CSC3 [Ac-(06-34-18) Phe2 Tyr4 Agp7] (Ac-CSFPYRCL[Agp]QDLC-NH2; linker 1-7-13 via TBMB) | 1599 | 672 nM | – |
| CC(=O)N[C@H]1CSCc2cc3cc(c2)CSC[C@H](NC(=O)[C@H](CCCNC(=N)N)NC(=O)[C@H](Cc2ccc(O)cc2)NC(=O)[C@@H]2CCCN2C(=O)[C@H](Cc2ccccc2)NC(=O)[C@H](CO)NC1=O)C(=O)N[C@H](C)C(=O)N[C@@H](Cc1c[nH]cn1)C(=O)N[C@@H](CCC(N)=O)C(=O)N[C@@H](CC(=O)O)C(=O)N[C@@H](CC(C)C)C(=O)N[C@H](C(N)=O)CSC3 [Ac-(06-34-18) Phe2 Tyr4 D-Ala6] (Ac-CSFPYRC[dA]HQDLC-NH2; linker 1-7-13 via TBMB) | – | – | Ki (human plasma Kallikrein; [3]): 9450 nM; F (Kivar/KiWT) (human plasma Kallikrein; Table 3c): 22507 |
| CC(=O)N[C@H]1CSCc2cc3cc(c2)CSC[C@H](NC(=O)[C@H](CCCNC(=N)N)NC(=O)[C@H](Cc2ccc(O)cc2)NC(=O)[C@@H]2CCCN2C(=O)[C@H](Cc2ccccc2)NC(=O)[C@H](CO)NC1=O)C(=O)N[C@@H](CC(C)C)C(=O)N[C@@H](Cc1c[nH]cn1)C(=O)N[C@H](C)C(=O)N[C@@H](CC(=O)O)C(=O)N[C@@H](CC(C)C)C(=O)N[C@H](C(N)=O)CSC3 [Ac-(06-34-18) Phe2 Tyr4 D-Ala8] (Ac-CSFPYRCLH[dA]DLC-NH2; linker 1-7-13 via TBMB) | – | – | Ki (human plasma Kallikrein; [3]): 243 nM; F (Kivar/KiWT) (human plasma Kallikrein; Table 3c): 578 |
| CC(=O)N[C@H]1CSCc2cc3cc(c2)CSC[C@H](NC(=O)[C@H](CCCNC(=N)N)NC(=O)[C@H](Cc2ccc(O)cc2)NC(=O)[C@@H]2CCCN2C(=O)[C@H](Cc2ccccc2)NC(=O)[C@H](CO)NC1=O)C(=O)N[C@@H](Cc1ccccc1)C(=O)N[C@@H](Cc1c[nH]cn1)C(=O)N[C@@H](CCC(N)=O)C(=O)N[C@@H](CC(=O)O)C(=O)N[C@@H](CC(C)C)C(=O)N[C@H](C(N)=O)CSC3 [Ac-(06-34-18) Phe2 Tyr4 Phe6] (Ac-CSFPYRCFHQDLC-NH2; linker 1-7-13 via TBMB) | – | – | Ki (human plasma Kallikrein; Table 24a, residue 6 modification in the context of Ac-(06-34-18) Phe2 Tyr4, read-out: Ki (nM) Ac-(06-34-18) Phe2 Tyr4): 14.9 nM |

The next lines start with results.

| F (Kivar/KiWT) (human plasma Kallikrein; Table 24b) | Ki (human plasma Kallikrein; [2]) | SMILES | other results |
| --- | --- | --- | --- |
| 1084 | 455 nM | CC(=O)N[C@H]1CSCc2cc3cc(c2)CSC[C@H](NC(=O)[C@H](CCCNC(=N)N)NC(=O)[C@H](Cc2ccc(O)cc2)NC(=O)[C@@H]2CCCN2C(=O)[C@H](Cc2ccccc2)NC(=O)[C@H](CO)NC1=O)C(=O)N[C@@H](CC(C)C)C(=O)N[C@@H](Cn1cncn1)C(=O)N[C@@H](CCC(N)=O)C(=O)N[C@@H](CC(=O)O)C(=O)N[C@@H](CC(C)C)C(=O)N[C@H](C(N)=O)CSC3 [Ac-(06-34-18) Phe2 Tyr4 1,2,4-TriAz7] (Ac-CSFPYRCL[X1]QDLC-NH2; linker 1-7-13 via TBMB) | – |
| 102 | 43 nM | CC(=O)N[C@H]1CSCc2cc3cc(c2)CSC[C@H](NC(=O)[C@H](CCCNC(=N)N)NC(=O)[C@H](Cc2ccc(O)cc2)NC(=O)[C@@H]2CCCN2C(=O)[C@H](Cc2ccccc2)NC(=O)[C@H](CO)NC1=O)C(=O)N[C@@H](CC(C)C)C(=O)N[C@@H](Cc1ccccc1)C(=O)N[C@@H](CCC(N)=O)C(=O)N[C@@H](CC(=O)O)C(=O)N[C@@H](CC(C)C)C(=O)N[C@H](C(N)=O)CSC3 [Ac-(06-34-18) Phe2 Tyr4 Phe7] (Ac-CSFPYRCLFQDLC-NH2; linker 1-7-13 via TBMB) | – |
| 80 | 34 nM | CC(=O)N[C@H]1CSCc2cc3cc(c2)CSC[C@H](NC(=O)[C@H](CCCNC(=N)N)NC(=O)[C@H](Cc2ccc(O)cc2)NC(=O)[C@@H]2CCCN2C(=O)[C@H](Cc2ccccc2)NC(=O)[C@H](CO)NC1=O)C(=O)N[C@@H](CC(C)C)C(=O)N[C@@H](Cc1cccs1)C(=O)N[C@@H](CCC(N)=O)C(=O)N[C@@H](CC(=O)O)C(=O)N[C@@H](CC(C)C)C(=O)N[C@H](C(N)=O)CSC3 [Ac-(06-34-18) Phe2 Tyr4 Thi7] (Ac-CSFPYRCL[2Thi]QDLC-NH2; linker 1-7-13 via TBMB) | – |
| 5365 | 2250 nM | CC(=O)N[C@H]1CSCc2cc3cc(c2)CSC[C@H](NC(=O)[C@H](CCCNC(=N)N)NC(=O)[C@H](Cc2ccc(O)cc2)NC(=O)[C@@H]2CCCN2C(=O)[C@H](Cc2ccccc2)NC(=O)[C@H](CO)NC1=O)C(=O)N[C@@H](CC(C)C)C(=O)N[C@@H](CCNC(=N)N)C(=O)N[C@@H](CCC(N)=O)C(=O)N[C@@H](CC(=O)O)C(=O)N[C@@H](CC(C)C)C(=O)N[C@H](C(N)=O)CSC3 [Ac-(06-34-18) Phe2 Tyr4 Agb7] (Ac-CSFPYRCL[Agb]QDLC-NH2; linker 1-7-13 via TBMB) | – |
